# Measured values: US20060216336A1, “Transdermal therapeutic system for Parkinson's Disease” (priority 2002, published 2006)
# Test: Multiple dose trial with rotating patch application sites in early-stage Parkinson's disease: rotigotine pharmacokinetics (Example 4)
# Settings: human, in vivo; for concentration at […]: 23.5 H
# Source text: Each day, a fresh patch was placed on a new skin site (abdomen, flank, upper arm, shoulder, thigh, hip) in a rotating order. The silicone transdermal patches were made in accordance with the teachings of U.S. Patent Application Publication No. US 2003/0026830 at paragraphs 38-42, U.S. Patent Application Publication No. US 2003/0027793 at paragraphs 37-41 and U.S. Pat. No. 6,884,434, columns 5-6, Example 2 and comprised the following layers and components:
# The trial consisted of an Eligibility Assessment (EA), a 24-day Titration Phase (4.5 to 18.0 mg/day doses; incremental increases of 4.5mg/day every 6 days), a 6-day Maintenance Phase (18.0 mg/day dose), a 6-day De-escalation Phase (13.5/9.0/4.5mg/day decreasing dose every 2 days), and a Safety Follow-Up visit 2 days following the last dose.
# The silicone transdermal patches were made in accordance with the teachings of U.S. Patent Application Publication No. US 2003/0026830 at paragraphs 3842 and U.S. Patent Application Publication No. US 2003/0027793 at paragraphs 3741 comprised the following layers and components as disclosed above
# The 18.0 mg/day dose used 2×20 cm^2 patches. Initial doses were 4.5 mg/day with weekly increases of 4.5 mg/day to a maximum target dose of 18.0 mg/day.
# [1] = rotigotine plasma concentration Geo. Mean
# [2] = rotigotine plasma concentration Max
# [3] = rotigotine plasma concentration Mean
# [4] = rotigotine plasma concentration Median
# [5] = rotigotine plasma concentrations, Geo. Mean
# [6] = rotigotine plasma concentrations, Mean
# [7] = rotigotine plasma concentrations, Median
smiles,measurement,setting,value
"CCCN(CCc1cccs1)[C@H]1CCc2c(O)cccc2C1 [rotigotine, (6S)-6{propyl[2-(2-thienyl)ethyl]amino}-5,6,7,8-tetrahydro-1-naphthalenol]",concentration at […],"18 mg/day, rotigotine plasma concentration Min, Thigh, Days 27 & 30 Combined",0.152 ng/mL
same,concentration at […],"18 mg/day, rotigotine plasma concentration Min, Upper Arm, Day 27",0.129 ng/mL
same,concentration at […],"18 mg/day, rotigotine plasma concentration Min, Upper Arm, Day 30",0.347 ng/mL
same,concentration at […],"18 mg/day, rotigotine plasma concentration Min, Upper Arm, Days 27 & 30 Combined",0.129 ng/mL
same,concentration at […],"18 mg/day, rotigotine plasma concentrations, Geo. Mean, Application Site = Abdomen, Day 27",0.806 ng/mL
same,concentration at […],"18 mg/day, rotigotine plasma concentrations, Geo. Mean, Application Site = Abdomen, Day 30",0.545 ng/mL
same,concentration at […],"18 mg/day, rotigotine plasma concentrations, Geo. Mean, Application Site = Abdomen, Days 27 & 30 Combined",0.676 ng/mL
same,concentration at 7 h,"18 mg/day, rotigotine plasma concentrations, Geo. Mean, Application Site = Flank, Days 27 & 30 Combined, 7 H",0.681 ng/mL
same,concentration at […],"18 mg/day, rotigotine plasma concentrations, Geo. Mean, Application Site = Flank, Days 27 & 30 Combined",0.81 ng/mL
same,concentration at […],"18 mg/day, rotigotine plasma concentrations, Mean, Application Site = Abdomen, Day 27",0.929 ng/mL
same,concentration at […],"18 mg/day, rotigotine plasma concentrations, Mean, Application Site = Abdomen, Day 30",0.613 ng/mL
same,concentration at […],"18 mg/day, rotigotine plasma concentrations, Mean, Application Site = Abdomen, Days 27 & 30 Combined",0.787 ng/mL
same,concentration at […],"18 mg/day, rotigotine plasma concentrations, Mean, Application Site = Flank, Days 27 & 30 Combined",1.1 ng/mL
same,concentration at […],"18 mg/day, rotigotine plasma concentrations, Median, Application Site = Abdomen, Day 30",0.415 ng/mL
same,concentration at […],"18 mg/day, rotigotine plasma concentrations, Median, Application Site = Abdomen, Days 27 & 30 Combined",0.677 ng/mL
same,concentration at […],"18 mg/day, rotigotine plasma concentrations, Median, Application Site = Flank, Days 27 & 30 Combined",0.714 ng/mL
same,AUC(0-t),"AUC 0-t, ss",0.0238 µg·h/mL
same,concentration at 27 day,Average Concentration,0.882 ng/mL
same,concentration at 30 day,Average Concentration,0.975 ng/mL
same,concentration at 5 h,[1],0.971 ng/mL
same,concentration at 6 h,[1],0.837 ng/mL
same,concentration at 7 h,[1],0.993 ng/mL
same,concentration at 14 h,[1],1.15 ng/mL
same,concentration at 16 h,[1],1.15 ng/mL
same,concentration at 18 h,[1],1.16 ng/mL
same,concentration at 20 h,[1],1.14 ng/mL
same,concentration at 22 h,[1],0.815 ng/mL
same,concentration at 10 h,[2],1.98 ng/mL
same,concentration at 16 h,[2],2.53 ng/mL
same,concentration at 18 h,[2],3.25 ng/mL
same,concentration at 22 h,[2],1.77 ng/mL
same,concentration at 6 h,[3],0.911 ng/mL
same,concentration at 7 h,[3],1.08 ng/mL
same,concentration at 10 h,[3],1.17 ng/mL
same,concentration at 14 h,[3],1.26 ng/mL
same,concentration at 16 h,[3],1.28 ng/mL
same,concentration at 18 h,[3],1.32 ng/mL
same,concentration at 20 h,[3],1.4 ng/mL
same,concentration at 22 h,[3],0.904 ng/mL
same,concentration at 5 h,[4],0.956 ng/mL
same,concentration at 14 h,[4],1.21 ng/mL
same,concentration at 16 h,[4],1.06 ng/mL
same,concentration at 18 h,[4],1.17 ng/mL
same,concentration at 20 h,[4],1.04 ng/mL
same,concentration at 22 h,[4],0.734 ng/mL
same,concentration at 10 h,[5],0.816 ng/mL
same,concentration at 12 h,[5],0.848 ng/mL
same,concentration at 14 h,[5],0.84 ng/mL
same,concentration at 16 h,[5],1 ng/mL
same,concentration at 18 h,[5],1.01 ng/mL
same,concentration at 20 h,[5],1.02 ng/mL
same,concentration at 22 h,[5],0.91 ng/mL
same,concentration at 10 h,[6],0.909 ng/mL
same,concentration at 12 h,[6],0.911 ng/mL
same,concentration at 14 h,[6],0.931 ng/mL
same,concentration at 16 h,[6],1.07 ng/mL
same,concentration at 18 h,[6],1.06 ng/mL
same,concentration at 20 h,[6],1.08 ng/mL
same,concentration at 22 h,[6],1.01 ng/mL
same,concentration at 10 h,[7],0.766 ng/mL
same,concentration at 12 h,[7],0.763 ng/mL
same,concentration at 14 h,[7],0.816 ng/mL
same,concentration at 16 h,[7],0.904 ng/mL
same,concentration at 18 h,[7],1.08 ng/mL
same,concentration at 20 h,[7],0.962 ng/mL
same,concentration at 22 h,[7],0.804 ng/mL
